Data from patent US12077503B2, “Substituted cyclic amides and their use as herbicides” (FMC CORPORATION, priority 2015, dated 2024).

What was measured:
Assay type in all cases: in vivo
[1] = tested on: ryegrass, Italian (Italian ryegrass, Lolium multiflorum); experiment: Test A preemergence; conditions: Lolium multiflorum, pre-emergence, 240 h; for pest or weed control at 125 g/ha: 125 g ai/ha, preemergence, 0 to 100 scale where 0 is no effect and 100 is complete control, read-out: Ryegrass, Italian plant response rating; for pest or weed control at 500 g/ha: 500 g ai/ha, Preemergence, visual injury vs untreated controls after approximately 10 d, read-out: Ryegrass, Italian plant response rating (0 to 100 scale where 0 is no effect and 100 is complete control)
Outline: (§1)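 Seeded soil received test chemicals as a preemergence directed spray, and seedlings at one to two leaves, 2–10 cm tall, received them postemergence, in a non-phytotoxic, surfactant-containing solvent mixture. Pots were held in a greenhouse for approximately 10 d, then rated for injury from 0, no effect, to 100, complete control.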

[2] = tested on: barnyardgrass (Echinochloa crus-galli); experiment: Test A preemergence; conditions: Echinochloa crus-galli, pre-emergence, 240 h; for pest or weed control at 125 g/ha: 125 g ai/ha, preemergence, 0 to 100 scale where 0 is no effect and 100 is complete control, read-out: Barnyardgrass plant response rating; for pest or weed control at 500 g/ha: 500 g ai/ha, Preemergence, visual injury vs untreated controls after approximately 10 d, read-out: Barnyardgrass plant response rating (0 to 100 scale where 0 is no effect and 100 is complete control)
Outline: as §1

[3] = tested on: ragweed (common ragweed, Ambrosia elatior); experiment: Test A preemergence; conditions: Ambrosia artemisiifolia, pre-emergence, 240 h; for pest or weed control at 125 g/ha: 125 g ai/ha, preemergence, 0 to 100 scale where 0 is no effect and 100 is complete control, read-out: Ragweed plant response rating; for pest or weed control at 500 g/ha: 500 g ai/ha, Preemergence, visual injury vs untreated controls after approximately 10 d, read-out: Ragweed plant response rating (0 to 100 scale where 0 is no effect and 100 is complete control)
Outline: as §1

[4] = tested on: pigweed (Amaranthus retroflexus); experiment: Test A preemergence; conditions: Amaranthus retroflexus, pre-emergence, 240 h; for pest or weed control at 125 g/ha: 125 g ai/ha, preemergence, 0 to 100 scale where 0 is no effect and 100 is complete control, read-out: Pigweed plant response rating; for pest or weed control at 500 g/ha: 500 g ai/ha, Preemergence, visual injury vs untreated controls after approximately 10 d, read-out: Pigweed plant response rating (0 to 100 scale where 0 is no effect and 100 is complete control)
Kochia (Kochia scoparia) [5] = experiment: Test A preemergence; conditions: Bassia scoparia, pre-emergence, 240 h; for pest or weed control at 125 g/ha: 125 g ai/ha, preemergence, 0 to 100 scale where 0 is no effect and 100 is complete control, read-out: Kochia plant response rating; for pest or weed control at 500 g/ha: 500 g ai/ha, Preemergence, visual injury vs untreated controls after approximately 10 d, read-out: Kochia plant response rating (0 to 100 scale where 0 is no effect and 100 is complete control)
Outline: as §1

[6] = tested on: giant foxtail (Setaria faberii); experiment: Test A preemergence; conditions: Setaria faberi, pre-emergence, 240 h; for pest or weed control at 125 g/ha: 125 g ai/ha, preemergence, 0 to 100 scale where 0 is no effect and 100 is complete control, read-out: Foxtail, Giant plant response rating; for pest or weed control at 500 g/ha: 500 g ai/ha, Preemergence, visual injury vs untreated controls after approximately 10 d, read-out: Foxtail, Giant plant response rating (0 to 100 scale where 0 is no effect and 100 is complete control)
Outline: as §1

[7] = tested on: ducksalad (Heteranthera limosa); experiment: Test B flooded paddy test; conditions: Heteranthera limosa, Flood, 250 g ai/ha; scale of 0 to 100 where 0 is no effect and 100 is complete control; read-out: Ducksalad plant response rating
Outline: (§2)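 Flooding to 3 cm over soil accompanied treatment, which consisted of adding compound to the standing water around 2-leaf plants; depth was then maintained. Visual assessment versus controls followed at 13 to 15 d (scale 0–100, 0 meaning no effect).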

[8] = tested on: barnyardgrass (Echinochloa crus-galli); experiment: Test B flooded paddy test; conditions: Echinochloa crus-galli, Flood, 250 g ai/ha; scale of 0 to 100 where 0 is no effect and 100 is complete control; read-out: Barnyardgrass plant response rating
Outline: as §2

rice (Oryra sativa) = experiment: Test B flooded paddy test; conditions: Oryza sativa, Flood, 250 g ai/ha; scale of 0 to 100 where 0 is no effect and 100 is complete control; read-out: Rice plant response rating
Outline: as §2

[9] = tested on: sedge, umbrella (small-flower umbrella sedge, Cyperus difformis); experiment: Test B flooded paddy test; conditions: Cyperus difformis, Flood, 250 g ai/ha; scale of 0 to 100 where 0 is no effect and 100 is complete control; read-out: Sedge, Umbrella plant response rating
Outline: as §2

[10] = tested on: barnyardgrass (Echinochloa crus-galli); experiment: Test A postemergence; conditions: Echinochloa crus-galli, post-emergence, 240 h, 125 g ai/ha, postemergence, visual injury rating after approximately 10 d; read-out: Barnyardgrass plant response rating (0 to 100 scale, 0 no effect, 100 complete control)
Outline: as §1

[11] = tested on: wheat (Triticum aestivum); experiment: Test A postemergence; conditions: Triticum aestivum, post-emergence, 240 h, 125 g ai/ha, postemergence, visual injury rating after approximately 10 d; read-out: Wheat plant response rating (0 to 100 scale, 0 no effect, 100 complete control)
Outline: as §1

Kochia (Kochia scoparia) [12] = experiment: Test A postemergence; conditions: Bassia scoparia, post-emergence, 240 h, 125 g ai/ha, postemergence, visual injury rating after approximately 10 d; read-out: Kochia plant response rating (0 to 100 scale, 0 no effect, 100 complete control)
Outline: as §1

[13] = tested on: giant foxtail (Setaria faberii); experiment: Test A postemergence; conditions: Setaria faberi, post-emergence, 240 h, 125 g ai/ha, postemergence, visual injury rating after approximately 10 d; read-out: Foxtail, Giant plant response rating (0 to 100 scale, 0 no effect, 100 complete control)
Outline: as §1

| SMILES | pest or weed control at 125 g/ha [1] | pest or weed control at 500 g/ha [1] | pest or weed control at 125 g/ha [2] | pest or weed control at 500 g/ha [2] | pest or weed control at 125 g/ha [3] | pest or weed control at 500 g/ha [3] | pest or weed control at 125 g/ha [4] | pest or weed control at 500 g/ha [4] | pest or weed control at 125 g/ha (Kochia (Kochia scoparia) [5]) | pest or weed control at 500 g/ha (Kochia (Kochia scoparia) [5]) | pest or weed control at 125 g/ha [6] | pest or weed control at 500 g/ha [6] | pest or weed control at 250 g/ha [7] | pest or weed control at 250 g/ha [8] | pest or weed control at 250 g/ha (rice (Oryra sativa)) | pest or weed control at 250 g/ha [9] | pest or weed control at 125 g/ha [10] | plant injury at 125 g/ha [11] | pest or weed control at 125 g/ha (Kochia (Kochia scoparia) [12]) | pest or weed control at 125 g/ha [13] |
| --- | --- | --- | --- | --- | --- | --- | --- | --- | --- | --- | --- | --- | --- | --- | --- | --- | --- | --- | --- | --- |
| CS(=O)(=O)c1ccccc1NC(=O)[C@H]1C(=O)NC[C@@H]1c1cc(F)c(C(F)(F)F)c(F)c1 [Compound 839] | 0% | 40% | 80% | 90% | 80% | 90% | 90% | 90% | 90% | 90% | 90% | 90% | 70% | 0% | 0% | 0% | 60% | 50% | 70% | 60% |
| COc1ccccc1NC(=O)[C@H]1C(=O)N(C)C[C@@H]1c1ccc(C(F)(F)F)cc1 [Compound 843] | 0% | 50% | 60% | 80% | 0% | 30% | 0% | 40% | 60% | 70% | 90% | 90% | 20% | 0% | 0% | 0% | 40% | 0% | 40% | 70% |
| CN1CC(c2cccc(I)c2)C(C(=O)Nc2ccccc2F)C1=O (centres unmarked) [Compound 846] | 60% | 70% | 90% | 90% | 0% | 0% | 0% | 0% | 20% | 70% | 90% | 90% | 60% | 60% | 0% | 0% | 90% | 0% | 40% | 90% |
| Cc1cc(F)cc([C@H]2CNC(=O)[C@@H]2C(=O)Nc2ccc(F)c(F)c2F)c1 [Compound 848] | 40% | 50% | 90% | 90% | 0% | 30% | 40% | 50% | 40% | 70% | 90% | 90% | 100% | 60% | 0% | 0% | 90% | 0% | 0% | 70% |
